Where a name gives a salt, the structure may show the parent alone.

In assay [1] the test system is ENR+CD organoids (ISC to Paneth cell differentiation). Description: Primary screen: CCh-stimulated lysozyme secretion LYZ.S, 2.5-D 384-well ENR+CD organoid differentiation. The assay is classed as cell-based, mouse. As to conditions: primary screen. The source says:
(§1) High-throughput screening.

Another assay deals with ENR+CD organoids. Description: Primary screen: ATP (CellTiter-Glo 3D, CTG) cell number/viability, 2.5-D 384-well ENR+CD organoids.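 Note: compounds given at plating and again on day 3 over a 6-day differentiation from ENR+CV stem-cell-enriched precursors, ATP measured on day 6, plate median as control.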
The test system of assay [2] is ENR+CD organoids (ISC to Paneth cell differentiation). Nature of the assay: Primary screen: basal (non-stimulated) lysozyme secretion LYZ.NS, 2.5-D 384-well ENR+CD organoid differentiation. The class given is cell-based, mouse.
Text: as §1

Setting [3] is: primary screen, standard z score, dose 0.08 uM.
The mark [4] stands for this setting: primary screen, standard z score, dose 0.40 uM.
Where [5] appears, read: primary screen, standard z score, dose 2.00 uM.
[6] abbreviates: primary screen, standard z score, dose 10.00 uM.
[7] abbreviates: primary screen; dose 0.08 uM; FC vs plate median.
Setting [8] is: primary screen; dose 0.40 uM; FC vs plate median.
Where [9] appears, read: primary screen; dose 2.00 uM; FC vs plate median.
Setting [10] is: primary screen; dose 10.00 uM; FC vs plate median.
The mark [11] stands for this setting: primary screen, dose 0.08 uM, standard z score.
Setting [12] is: primary screen, dose 0.40 uM, standard z score.
[13] abbreviates: primary screen, dose 2.00 uM, standard z score.
Setting [14] is: primary screen, dose 10.00 uM, standard z score.
Where [15] appears, read: primary screen, dose 0.08 uM, FC relative to plate median.
Where [16] appears, read: primary screen, dose 0.40 uM, FC relative to plate median.
Setting [17] is: primary screen, dose 2.00 uM, FC relative to plate median.
Where [18] appears, read: primary screen, dose 10.00 uM, FC relative to plate median.

Turning to `CC(C)c1cc(-c2n[nH]c(=O)n2-c2ccc3c(ccn3C)c2)c(O)cc1O` [Ganetespib (STA-9090)], the Dose.FC.LYZ.S in assay [1] (dose 0.08 uM) is recorded as −0.260 log2 fold change; in assay [1] (dose 0.40 uM), −0.250 log2 fold change; in assay [1] (dose 2.00 uM) it was −0.260 log2 fold change; in assay [1] (dose 10.00 uM), −0.267 log2 fold change. Also, the Dose.FC.CTG in the assay on ENR+CD organoids (primary screen, dose 0.08 uM) is −1.450 log2 fold change; with ENR+CD organoids (primary screen, dose 0.40 uM), −2.105 log2 fold change; with ENR+CD organoids (primary screen, dose 2.00 uM), −1.721 log2 fold change; in the assay on ENR+CD organoids (primary screen, dose 10.00 uM), −1.620 log2 fold change. In addition, the Z.CTG is on record as −3.465 with ENR+CD organoids (setting [3]), −5.027 in the assay with ENR+CD organoids (setting [4]), −4.110 in the assay on ENR+CD organoids (setting [5]) and −3.871 in the assay with ENR+CD organoids (setting [6]). Also, the Dose.FC.LYZ.NS in assay [2] (primary screen, dose 0.08 uM) is on record as −0.141 log2 fold change; in assay [2] (primary screen, dose 0.40 uM) it was −0.155 log2 fold change; in assay [2] (primary screen, dose 2.00 uM), −0.150 log2 fold change; in assay [2] (primary screen, dose 10.00 uM), −0.136 log2 fold change. Also, the Z.LYZ.NS in assay [2] (setting [3]) is reported as −1.226; in assay [2] (setting [4]), −1.345; in assay [2] (setting [5]) it was −1.309; in assay [2] (setting [6]), −1.181.

Regarding `Nc1cccc2c1CN(C1CCC(=O)NC1=O)C2=O` (stereo not shown) [Lenalidomide (CC-5013)], the “Dose.FC.LYZ.S (log2 fold change)” value is 0.099 in assay [1] (dose 0.08 uM), 0.176 in assay [1] (dose 0.40 uM), 0.025 in assay [1] (dose 2.00 uM) and −0.045 in assay [1] (dose 10.00 uM). The “Dose.FC.CTG (log2 fold change)” value in the assay on ENR+CD organoids (primary screen, dose 0.08 uM) is 0.046; with ENR+CD organoids (primary screen, dose 0.40 uM), −0.016; in the assay with ENR+CD organoids (primary screen, dose 2.00 uM), −0.250; with ENR+CD organoids (primary screen, dose 10.00 uM), −0.316. For the same compound, the “Z.CTG (standard z score)” value in the assay on ENR+CD organoids (primary screen, dose 0.08 uM) is reported as 0.110; in the assay on ENR+CD organoids (primary screen, dose 0.40 uM) it was −0.037; in the assay on ENR+CD organoids (primary screen, dose 2.00 uM), −0.596; with ENR+CD organoids (primary screen, dose 10.00 uM), −0.754. Also, the “Dose.FC.LYZ.NS (log2 fold change)” value is 0.147 in assay [2] (primary screen, dose 0.08 uM); 0.099 in assay [2] (primary screen, dose 0.40 uM); 0.071 in assay [2] (primary screen, dose 2.00 uM); −0.041 in assay [2] (primary screen, dose 10.00 uM). For the same compound, the “Z.LYZ.NS (standard z score)” value was 1.283 in assay [2] (primary screen, dose 0.08 uM); 0.863 in assay [2] (primary screen, dose 0.40 uM); 0.615 in assay [2] (primary screen, dose 2.00 uM); −0.360 in assay [2] (primary screen, dose 10.00 uM).

For `Oc1cc(O)cc(/C=C/c2ccc(O)c(O)c2)c1` [Piceatannol], the Dose.FC.LYZ.S in assay [1] (dose 0.08 uM, FC vs plate median) is reported as 0.094 log2 fold change; in assay [1] (dose 0.40 uM, FC vs plate median), 0.045 log2 fold change; in assay [1] (dose 2.00 uM, FC vs plate median) it was 0.016 log2 fold change; in assay [1] (dose 10.00 uM, FC vs plate median), −0.104 log2 fold change. Moreover, the Dose.FC.CTG is 0.232 log2 fold change with ENR+CD organoids (setting [7]), −0.090 log2 fold change in the assay on ENR+CD organoids (setting [8]), 0.074 log2 fold change with ENR+CD organoids (setting [9]) and −0.071 log2 fold change with ENR+CD organoids (setting [10]). The Z.LYZ.NS in assay [2] (setting [11]) was 0.698; in assay [2] (setting [12]), 0.375; in assay [2] (setting [13]) it was 0.221; in assay [2] (setting [14]), −0.184. The Dose.FC.LYZ.NS in assay [2] (setting [7]) was 0.080 log2 fold change; in assay [2] (setting [8]), 0.043 log2 fold change; in assay [2] (setting [9]), 0.025 log2 fold change; in assay [2] (setting [10]) it was −0.021 log2 fold change.

On to `CN1C2CCCC1CC(NC(=O)c1nn(C)c3ccccc13)C2` (stereo not shown) [Granisetron HCl], for which the “Dose.FC.LYZ.S (log2 fold change)” value in assay [1] (dose 0.08 uM) is 0.015; in assay [1] (dose 0.40 uM), 0.131; in assay [1] (dose 2.00 uM), −0.007; in assay [1] (dose 10.00 uM) it was −0.103. Moreover, the “Dose.FC.CTG (log2 fold change)” value is recorded as −0.214 in the assay with ENR+CD organoids (primary screen, dose 0.08 uM); −0.086 in the assay on ENR+CD organoids (primary screen, dose 0.40 uM); −0.178 in the assay on ENR+CD organoids (primary screen, dose 2.00 uM); −0.297 with ENR+CD organoids (primary screen, dose 10.00 uM). The “Dose.FC.LYZ.NS (log2 fold change)” value is listed as 0.061 in assay [2] (primary screen, dose 0.08 uM); −0.002 in assay [2] (primary screen, dose 0.40 uM); 0.018 in assay [2] (primary screen, dose 2.00 uM); −0.043 in assay [2] (primary screen, dose 10.00 uM). Further, the “Z.LYZ.NS (standard z score)” value is reported as 0.531 in assay [2] (primary screen, dose 0.08 uM); −0.021 in assay [2] (primary screen, dose 0.40 uM); 0.155 in assay [2] (primary screen, dose 2.00 uM); −0.378 in assay [2] (primary screen, dose 10.00 uM).

Turning to `CC(C)Oc1ccc(-c2cnc3c(-c4ccnc5ccccc45)cnn3c2)cc1` [DMH1], the Dose.FC.LYZ.S was 0.078 log2 fold change in assay [1] (dose 0.08 uM), 0.054 log2 fold change in assay [1] (dose 0.40 uM), 0.035 log2 fold change in assay [1] (dose 2.00 uM) and −0.092 log2 fold change in assay [1] (dose 10.00 uM). In addition, the Dose.FC.CTG in the assay on ENR+CD organoids (primary screen, dose 0.08 uM) is −0.031 log2 fold change; in the assay with ENR+CD organoids (primary screen, dose 0.40 uM), −0.079 log2 fold change; in the assay on ENR+CD organoids (primary screen, dose 2.00 uM), −0.002 log2 fold change; with ENR+CD organoids (primary screen, dose 10.00 uM) it was −0.001 log2 fold change. For the same compound, the Z.CTG in the assay with ENR+CD organoids (setting [3]) is listed as −0.075; in the assay on ENR+CD organoids (setting [4]), −0.188; with ENR+CD organoids (setting [5]) it was −0.004; with ENR+CD organoids (setting [6]), −0.003. Besides, the Dose.FC.LYZ.NS in assay [2] (primary screen, dose 0.08 uM) is 0.018 log2 fold change; in assay [2] (primary screen, dose 0.40 uM), 0.026 log2 fold change; in assay [2] (primary screen, dose 2.00 uM), 0.014 log2 fold change; in assay [2] (primary screen, dose 10.00 uM), −0.075 log2 fold change. Also, the Z.LYZ.NS in assay [2] (setting [3]) is listed as 0.155; in assay [2] (setting [4]), 0.231; in assay [2] (setting [5]), 0.124; in assay [2] (setting [6]), −0.657.

Regarding S3I-201, the Dose.FC.LYZ.S in assay [1] (dose 0.08 uM, FC relative to plate median) is 0.033 log2 fold change; in assay [1] (dose 0.40 uM, FC relative to plate median) it was 0.157 log2 fold change; in assay [1] (dose 2.00 uM, FC relative to plate median), −0.004 log2 fold change; in assay [1] (dose 10.00 uM, FC relative to plate median), −0.052 log2 fold change. Besides, the Dose.FC.CTG is 0.321 log2 fold change with ENR+CD organoids (setting [15]), 0.160 log2 fold change in the assay on ENR+CD organoids (setting [16]), 0.079 log2 fold change with ENR+CD organoids (setting [17]) and −0.140 log2 fold change in the assay with ENR+CD organoids (setting [18]). For the same compound, the Z.CTG is listed as 0.766 in the assay with ENR+CD organoids (setting [11]), 0.382 with ENR+CD organoids (setting [12]), 0.188 with ENR+CD organoids (setting [13]) and −0.334 with ENR+CD organoids (setting [14]). Also, the Dose.FC.LYZ.NS in assay [2] (setting [15]) is 0.051 log2 fold change; in assay [2] (setting [16]) it was 0.061 log2 fold change; in assay [2] (setting [17]), 0.024 log2 fold change; in assay [2] (setting [18]), −0.016 log2 fold change. The Z.LYZ.NS in assay [2] (setting [11]) is reported as 0.445; in assay [2] (setting [12]) it was 0.527; in assay [2] (setting [13]), 0.212; in assay [2] (setting [14]), −0.143.
